According to patent publication US10450318B2, “CXCR4 receptor antagonists” (BRISTOL-MYERS SQUIBB COMPANY, priority 2015, dated 2019):

Biological target: T1, CXCR4 receptors (Homo sapiens, UniProt P61073)
T1 construct: expressing endogenous CXCR4 receptors; endogenous in cells; host or cells: CCRF-CEM (human T lymphoblast cells)
Assay: CXCR4-CEM calcium flux assay, antagonist mode (inhibition of SDF-1α-induced calcium flux)
Assay type: cell-based
Details: inhibition of calcium flux induced by 4 nM SDF-1α in CCRF-CEM cells
Procedure: Exemplary compounds of the invention were tested for their ability to induce or inhibit calcium flux in CCRF-CEM cells. […] CXCR4-CEM Calcium Flux Assays. […] The cells were then equilibrated to room temperature for 30 minutes before assay. […] The serially diluted compounds were diluted to working concentrations with the same assay buffer to 0.5% DMSO. […] Activity of the compounds to induce calcium flux was monitored by FDSS in the “agonist mode” for 90 sec. For “antagonist mode” assessment, the cells are subsequently incubated for 25 min at room temperature. SDF-1α (R&D System Cat#350-NS/CF) was then added at a final concentration of 4 nM to stimulate the cells. Inhibition of SDF-1α-induced calcium flux was monitored by FDSS6000 for 90 sec. […] After correcting for background, EC50 values were determined. […] Inhibition data for the test compound over a range of concentrations was plotted as percentage inhibition of the test compound as compared to an internal control compound.

T1 sequence (P61073 whole entry): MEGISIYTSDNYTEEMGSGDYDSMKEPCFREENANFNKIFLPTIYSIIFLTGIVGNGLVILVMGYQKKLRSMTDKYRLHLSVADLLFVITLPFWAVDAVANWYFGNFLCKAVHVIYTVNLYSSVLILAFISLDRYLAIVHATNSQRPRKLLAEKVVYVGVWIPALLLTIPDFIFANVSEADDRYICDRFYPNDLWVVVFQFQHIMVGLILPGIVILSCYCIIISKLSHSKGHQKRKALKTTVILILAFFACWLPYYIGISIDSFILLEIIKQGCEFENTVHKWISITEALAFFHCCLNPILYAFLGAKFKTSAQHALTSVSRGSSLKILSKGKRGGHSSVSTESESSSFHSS

IC50 [nM]	SMILES
150	CN(Cc1cn2c(N3CCn4ccnc4C3)nccc2n1)[C@H]1CCCc2cccnc21 [Example 83, (S)-N-((5-(5,6-dihydroimidazo[1,2-a]pyrazin-7(8H)-yl)imidazo[1,2-c]pyrimidin-2-yl)methyl)-N-methyl-5,6,7,8-tetrahydroquinolin-8-amine]
33	CN(Cc1cn2c(N3CCN(CCc4ccc(O)cc4)CC3)nccc2n1)[C@H]1CCCc2cccnc21 [Example 61, 4-(2-{4-[2-({methyl[(S)-5,6,7,8-tetrahydroquinolin-8-yl]amino}methyl)imidazo[1,2-c]pyrimidin-5-yl]piperazin-1-yl}ethyl)phenol]
92	CN(Cc1cn2c(N3CCN(CC(=O)O)CC3)nccc2n1)[C@H]1CCCc2cccnc21 [Example 50, 2-{4-[2-({methyl[(S)-5,6,7,8-tetrahydroquinolin-8-yl]amino}methyl)imidazo[1,2-c]pyrimidin-5-yl]piperazin-1-yl}acetic acid]
9	CN(Cc1cn2c(N3CCN(Cc4ccccn4)CC3)nccc2n1)[C@H]1CCCc2cccnc21 [Example 55, (S)-N-methyl-N-({5-[4-(pyridin-2-ylmethyl)piperazin-1-yl]imidazo[1,2-c]pyrimidin-2-yl}methyl)-5,6,7,8-tetrahydroquinolin-8-amine]
170	CN(Cc1cn2c(N3CCN(CC4CCCC4)CC3)nccc2n1)[C@H]1CCCc2cccnc21 [Example 31, (S)-N-({5-[4-(cyclopentylmethyl)piperazin-1-yl]imidazo[1,2-c]pyrimidin-2-yl}methyl)-N-methyl-5,6,7,8-tetrahydroquinolin-8-amine]
14	CN(Cc1cn2c(N3CCN(CCc4ccccc4)CC3)nccc2n1)[C@H]1CCCc2cccnc21 [Example 18, (S)-N-methyl-N-({5-[4-(2-phenylethyl)piperazin-1-yl]imidazo[1,2-c]pyrimidin-2-yl}methyl)-5,6,7,8-tetrahydroquinolin-8-amine]
60	CN(Cc1cn2c(N3CCN(CC4CCCO4)CC3)nccc2n1)[C@H]1CCCc2cccnc21 (stereo partly drawn) [Example 58, (S)-N-methyl-N-({5-[4-(oxolan-2-ylmethyl)piperazin-1-yl]imidazo[1,2-c]pyrimidin-2-yl}methyl)-5,6,7,8-tetrahydroquinolin-8-amine]
11	CN(Cc1cn2c(N3CCN(Cc4ccc(O)cc4)CC3)nccc2n1)[C@H]1CCCc2cccnc21 [Example 24, 4-({4-[2-({methyl[(S)-5,6,7,8-tetrahydroquinolin-8-yl]amino}methyl)imidazo[1,2-c]pyrimidin-5-yl]piperazin-1-yl}methyl)phenol]
> 16000	CN(Cc1cn2c(N3CCN(CC(F)(F)F)CC3)nccc2n1)[C@H]1CCCc2cccnc21 [Example 84, (S)-N-methyl-N-((5-(4-(2,2,2-trifluoroethyl)piperazin-1-yl)imidazo[1,2-c]pyrimidin-2-yl)methyl)-5,6,7,8-tetrahydroquinolin-8-amine]
42	CN(Cc1cn2c(N3CCN(Cc4nccs4)CC3)nccc2n1)[C@H]1CCCc2cccnc21 [Example 67, (S)-N-methyl-N-({5-[4-(1,3-thiazol-2-ylmethyl)piperazin-1-yl]imidazo[1,2-c]pyrimidin-2-yl}methyl)-5,6,7,8-tetrahydroquinolin-8-amine]
4.6	CN(Cc1cn2c(N3CCN(Cc4cccn4C)CC3)nccc2n1)[C@H]1CCCc2cccnc21 [Example 56, (S)-N-methyl-N-[(5-{4-[(1-methyl-1H-pyrrol-2-yl)methyl]piperazin-1-yl}imidazo[1,2-c]pyrimidin-2-yl)methyl]-5,6,7,8-tetrahydroquinolin-8-amine]
510	CCN1CCN(c2nccc3nc(CN(C)[C@H]4CCCc5cccnc54)cn23)CC1 [Example 35, (S)-N-{[5-(4-ethylpiperazin-1-yl)imidazo[1,2-c]pyrimidin-2-yl]methyl}-N-methyl-5,6,7,8-tetrahydroquinolin-8-amine]

More lines, now with the values behind:

SMILES	IC50 [nM]
CC(CN1CCN(c2nccc3nc(CN(C)[C@H]4CCCc5cccnc54)cn23)CC1)c1ccccc1 (stereo partly drawn) [Example 46, (S)-N-methyl-N-({5-[4-(2-phenylpropyl)piperazin-1-yl]imidazo[1,2-c]pyrimidin-2-yl}methyl)-5,6,7,8-tetrahydroquinolin-8-amine]	7.3
CCNC(=O)N1CCN(c2nccc3nc(CN(C)[C@H]4CCCc5cccnc54)cn23)CC1 [Example 14, (S)—N-ethyl-4-(2-((methyl(5,6,7,8-tetrahydroquinolin-8-yl)amino)methyl)imidazo[1,2-c]pyrimidin-5-yl)piperazine-1-carboxamide]	1230
CN(Cc1cn2c(N3CCN4C[C@@H](F)C[C@H]4C3)nccc2n1)[C@H]1CCCc2cccnc21 [Example 87, (S)-N-((5-((7S,8aS)-7-fluorohexahydropyrrolo[1,2-a]pyrazin-2(1H)-yl)imidazo[1,2-c]pyrimidin-2-yl)methyl)-N-methyl-5,6,7,8-tetrahydroquinolin-8-amine]	200
CN1CC2CN(c3nccc4nc(CN(C)[C@H]5CCCc6cccnc65)cn34)CC2C1 (stereo partly drawn) [Example 81, (8S)-N-methyl-N-((5-(5-methylhexahydropyrrolo[3,4-c]pyrrol-2(1H)-yl)imidazo[1,2-c]pyrimidin-2-yl)methyl)-5,6,7,8-tetrahydroquinolin-8-amine]	32
CN(Cc1cn2c(N3CCN(CCCc4ccccc4)CC3)nccc2n1)[C@H]1CCCc2cccnc21 [Example 34, (S)-N-methyl-N-({5-[4-(3-phenylpropyl)piperazin-1-yl]imidazo[1,2-c]pyrimidin-2-yl}methyl)-5,6,7,8-tetrahydroquinolin-8-amine]	120
CN(Cc1cn2c(N3CCNC(c4ccccc4)C3)nccc2n1)[C@H]1CCCc2cccnc21 (single isomer, unassigned) [Example 78]	11
CN(Cc1cn2c(N3CCN(S(C)(=O)=O)CC3)nccc2n1)[C@H]1CCCc2cccnc21 [Example 15, (S)—N-Methyl-N-((5-(4-(methylsulfonyl)piperazin-1-yl)imidazo[1,2-c]pyrimidin-2-yl)methyl)-5,6,7,8-tetrahydroquinolin-8-amine]	750
CN1CCN(c2nccc3nc(CN(C)[C@H]4CCCc5cccnc54)cn23)C[C@@H]1CO [Example 98, ((R)-1-methyl-4-(2-((methyl((S)-5,6,7,8-tetrahydroquinolin-8-yl)amino)methyl)imidazo[1,2-c]pyrimidin-5-yl)piperazin-2-yl)methanol]	1.9
CN(Cc1cn2c(N3CCN(C(=O)Nc4cccc(Cl)c4)CC3)nccc2n1)[C@H]1CCCc2cccnc21 [Example 68, N-(3-chlorophenyl)-4-[2-({methyl[(S)-5,6,7,8-tetrahydroquinolin-8-yl]amino}methyl)imidazo[1,2-c]pyrimidin-5-yl]piperazine-1-carboxamide]	50
CN(Cc1cn2c(N3CC4CCNC4C3)nccc2n1)[C@H]1CCCc2cccnc21 (stereo partly drawn) [Example 94, (8S)-N-((5-(hexahydropyrrolo[3,4-b]pyrrol-5(1H)-yl)imidazo[1,2-c]pyrimidin-2-yl)methyl)-N-methyl-5,6,7,8-tetrahydroquinolin-8-amine]	65
CN(Cc1cn2c(N3CC4CNC4C3)nccc2n1)[C@H]1CCCc2cccnc21 (stereo partly drawn) [Example 88, (8S)-N-((5-(3,6-diazabicyclo[3.2.0]heptan-3-yl)imidazo[1,2-c]pyrimidin-2-yl)methyl)-N-methyl-5,6,7,8-tetrahydroquinolin-8-amine]	220
CN(Cc1cn2c(N3CCNCC3)nc(Cl)cc2n1)[C@H]1CCCc2cccnc21 [Example 72, (S)—N-((7-Chloro-5-(piperazin-1-yl)imidazo[1,2-c]pyrimidin-2-yl)methyl)-N-methyl-5,6,7,8-tetrahydroquinolin-8-amine]	330
CN(Cc1cn2c(N3CCN(S(=O)(=O)c4cccc(Cl)c4)CC3)nccc2n1)[C@H]1CCCc2cccnc21 [Example 42, (S)-N-({5-[4-(3-chlorobenzenesulfonyl)piperazin-1-yl]imidazo[1,2-c]pyrimidin-2-yl}methyl)-N-methyl-5,6,7,8-tetrahydroquinolin-8-amine]	22700
C[C@@H]1CN(c2nccc3nc(CN(C)[C@H]4CCCc5cccnc54)cn23)C[C@H](C)N1C [Example 97, (S)—N-Methyl-N-((5-((3S,5R)-3,4,5-trimethylpiperazin-1-yl)imidazo[1,2-c]pyrimidin-2-yl)methyl)-5,6,7,8-tetrahydroquinolin-8-amine]	480
CN(Cc1cn2c(N3CC4CCCNC4C3)nccc2n1)[C@H]1CCCc2cccnc21 (single isomer, unassigned) [Example 95]	24
CN(Cc1nc2ccnc(N3CCN4CCC[C@H]4C3)n2c1CO)[C@H]1CCCc2cccnc21 [Example 108, (5-((S)-Hexahydropyrrolo[1,2-a]pyrazin-2(1H)-yl)-2-((methyl((S)-5,6,7,8-tetrahydroquinolin-8-yl)amino)methyl)imidazo[1,2-c]pyrimidin-3-yl)methanol]	2.1
CN(Cc1cn2c(N3CCN(S(=O)(=O)c4cccnc4)CC3)nccc2n1)[C@H]1CCCc2cccnc21 [Example 41, (S)-N-methyl-N-({5-[4-(pyridine-3-sulfonyl)piperazin-1-yl]imidazo[1,2-c]pyrimidin-2-yl}methyl)-5,6,7,8-tetrahydroquinolin-8-amine]	7500
CN(Cc1cn2c(N3CCOCC3)nccc2n1)[C@H]1CCCc2cccnc21 [Example 9, (S)—N-Methyl-N-((5-morpholinoimidazo[1,2-c]pyrimidin-2-yl)methyl)-5,6,7,8-tetrahydroquinolin-8-amine]	25500
